# From ChEMBL document CHEMBL1201861, “Genomics of Drug Sensitity in Cancer screening data, Wellcome Trust Sanger Institute”
# Tests used:
# Experiment in all cases: cells
# AU565 = format: functional, cell-based, Homo sapiens; settings: Homo sapiens, AU565;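 also: cell viability assay measuring growth inhibition of human AU565 cells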
# Description: SANGER: Inhibition of human AU565 cell growth in a cell viability assay.
# NCI-H596 = format: functional, cell-based, Homo sapiens; settings: Homo sapiens, NCI-H596;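 also: growth inhibition of NCI-H596 cells, read out with a cell viability assay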
# Description: SANGER: Inhibition of human NCI-H596 cell growth in a cell viability assay.
# SW1710 = format: functional, cell-based, Homo sapiens; settings: Homo sapiens, SW1710;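 also: growth inhibition of SW1710 cells, determined with a cell viability assay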
# Description: SANGER: Inhibition of human SW1710 cell growth in a cell viability assay.
# LB2518-MEL = format: functional, cell-based, Homo sapiens; settings: Homo sapiens, LB2518-MEL;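 also: growth inhibition of human LB2518-MEL cells, measured with a cell viability assay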
# Description: SANGER: Inhibition of human LB2518-MEL cell growth in a cell viability assay.
# K562 = format: functional, cell-based; settings: Homo sapiens
# Description: SANGER: Inhibition of human K-562 cell growth in a cell viability assay.
# VA-ES-BJ = format: functional, cell-based, Homo sapiens; settings: Homo sapiens, VA-ES-BJ;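 also: growth inhibition of the VA-ES-BJ cell line, read out by a cell viability assay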
# Description: SANGER: Inhibition of human VA-ES-BJ cell growth in a cell viability assay.
# DoTc2-4510 = format: functional, cell-based, Homo sapiens; settings: Homo sapiens, DoTc2-4510
# EW-16 = format: functional, cell-based, Homo sapiens; settings: Homo sapiens, EW-16;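 also: growth inhibition of human EW-16 cells, read out as cell viability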
# Description: SANGER: Inhibition of human EW-16 cell growth in a cell viability assay.
# NB69 = format: functional, cell-based, Homo sapiens; settings: Homo sapiens, NB69;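 also: growth inhibition of NB69 cells, determined by a cell viability assay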
# Description: SANGER: Inhibition of human NB69 cell growth in a cell viability assay.
# T84 = format: functional, cell-based, Homo sapiens; settings: Homo sapiens, T84;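 also: growth inhibition measured with a cell viability readout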
# Description: SANGER: Inhibition of human T84 cell growth in a cell viability assay.
# COR-L88 = format: functional, cell-based; settings: Homo sapiens;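 also: growth inhibition of COR-L88 cells, read out with a cell viability assay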
# Description: SANGER: Inhibition of human COR-L88 cell growth in a cell viability assay.
# COR-L105 = format: functional, cell-based, Homo sapiens; settings: Homo sapiens, COR-L105;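 also: cell growth inhibition determined with a viability assay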
# Description: SANGER: Inhibition of human COR-L105 cell growth in a cell viability assay.
# K5 = format: functional, cell-based, Homo sapiens; settings: Homo sapiens, K5
# Description: SANGER: Inhibition of human K5 cell growth in a cell viability assay.
# ACHN = format: functional, cell-based, Homo sapiens; settings: Homo sapiens, ACHN;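 also: cell viability read-out used to gauge how strongly growth of human ACHN cells is suppressed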
# Description: SANGER: Inhibition of human ACHN cell growth in a cell viability assay.
# ES3 = format: functional, cell-based, Homo sapiens; settings: Homo sapiens, ES3;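 also: growth inhibition of ES3 cells, read out with a cell viability assay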
# Description: SANGER: Inhibition of human ES3 cell growth in a cell viability assay.
# NCI-H1650 = format: functional, cell-based, Homo sapiens; settings: Homo sapiens, NCI-H1650;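 also: growth inhibition of human NCI-H1650 cells measured by a cell viability assay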
# Description: SANGER: Inhibition of human NCI-H1650 cell growth in a cell viability assay.
# SW1990 = format: functional, cell-based, Homo sapiens; settings: Homo sapiens, SW1990;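 also: cell growth inhibition determined with a viability assay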
# Description: SANGER: Inhibition of human SW1990 cell growth in a cell viability assay.
# GP5d = format: functional, cell-based, Homo sapiens; settings: Homo sapiens, GP5d;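 also: growth inhibition of human GP5d cells, read out with a cell viability assay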
# Description: SANGER: Inhibition of human GP5d cell growth in a cell viability assay.
# G-401 = format: functional, cell-based, Homo sapiens; settings: Homo sapiens, G-401
# Description: SANGER: Inhibition of human G-401 cell growth in a cell viability assay.
# OAW-28 = format: functional, cell-based, Homo sapiens; settings: Homo sapiens, OAW-28;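 also: growth inhibition of OAW-28 cells, read out with a cell viability assay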
# Description: SANGER: Inhibition of human OAW-28 cell growth in a cell viability assay.
# M14 = format: functional, cell-based, Homo sapiens; settings: Homo sapiens, M14;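 also: growth inhibition of M14 cells, read out with a cell viability assay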
# Description: SANGER: Inhibition of human M14 cell growth in a cell viability assay.
# NCI-H23 = format: functional, cell-based, Homo sapiens; settings: Homo sapiens, NCI-H23;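 also: cell viability assay measuring growth inhibition of NCI-H23 cells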
# Description: SANGER: Inhibition of human NCI-H23 cell growth in a cell viability assay.
# PANC-03-27 = format: functional, cell-based, Homo sapiens; settings: Homo sapiens, PANC-03-27
# Description: SANGER: Inhibition of human PANC-03-27 cell growth in a cell viability assay.
# A 172 = format: functional, cell-based, Homo sapiens; settings: Homo sapiens, A 172;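 also: growth inhibition of A172 cells, measured with a cell viability readout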
# Description: SANGER: Inhibition of human A172 cell growth in a cell viability assay.
# CP66-MEL = format: functional, cell-based, Homo sapiens; settings: Homo sapiens, CP66-MEL;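 also: growth inhibition of CP66-MEL cells determined in a cell viability assay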
# Description: SANGER: Inhibition of human CP66-MEL cell growth in a cell viability assay.
# DMS-114 = format: functional, cell-based, Homo sapiens; settings: Homo sapiens, DMS-114
# MMAC-SF = format: functional, cell-based, Homo sapiens; settings: Homo sapiens, MMAC-SF;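 also: growth inhibition of human MMAC-SF cells, read out with a cell viability assay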
# Description: SANGER: Inhibition of human MMAC-SF cell growth in a cell viability assay.
# NCI-H1563 = format: functional, cell-based, Homo sapiens; settings: Homo sapiens, NCI-H1563;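 also: growth inhibition of human NCI-H1563 cells, read out with a cell viability assay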
# Description: SANGER: Inhibition of human NCI-H1563 cell growth in a cell viability assay.
# HD-MY-Z = format: functional, cell-based, Homo sapiens; settings: Homo sapiens, HD-MY-Z;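 also: growth inhibition of HD-MY-Z cells, read out with a cell viability assay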
# Description: SANGER: Inhibition of human HD-MY-Z cell growth in a cell viability assay.
# NB13 = format: functional, cell-based, Homo sapiens; settings: Homo sapiens, NB13;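 also: cell viability readout measuring growth inhibition of human NB13 cells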
# Description: SANGER: Inhibition of human NB13 cell growth in a cell viability assay.
# CAL-120 = format: functional, cell-based, Homo sapiens; settings: Homo sapiens, CAL-120;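 also: cell growth inhibition, read out as cell viability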
# Description: SANGER: Inhibition of human CAL-120 cell growth in a cell viability assay.
# ASPC1 = format: functional, cell-based, Homo sapiens; settings: Homo sapiens, ASPC1;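 also: growth inhibition of AsPC-1 cells, read out with a cell viability assay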
# Description: SANGER: Inhibition of human AsPC-1 cell growth in a cell viability assay.
# GI-1 = format: functional, cell-based, Homo sapiens; settings: Homo sapiens, GI-1;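 also: growth inhibition of human GI-1 cells, measured with a cell viability readout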
# Description: SANGER: Inhibition of human GI-1 cell growth in a cell viability assay.
# DBTRG-05MG = format: functional, cell-based, Homo sapiens; settings: Homo sapiens, DBTRG-05MG;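 also: cell viability assay measuring growth inhibition of human DBTRG-05MG cells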
# Description: SANGER: Inhibition of human DBTRG-05MG cell growth in a cell viability assay.
# UMUC3 = format: functional, cell-based, Homo sapiens; settings: Homo sapiens, UMUC3;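 also: growth inhibition of human UM-UC-3 cells, read out with a cell viability assay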
# Description: SANGER: Inhibition of human UM-UC-3 cell growth in a cell viability assay.
# COLO-824 = format: functional, cell-based, Homo sapiens; settings: Homo sapiens, COLO-824
# Description: SANGER: Inhibition of human COLO-824 cell growth in a cell viability assay.
# SF-268 = format: functional, cell-based, Homo sapiens; settings: Homo sapiens, SF-268;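 also: growth inhibition of SF-268 cells determined with a cell viability assay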
# Description: SANGER: Inhibition of human SF268 cell growth in a cell viability assay.
# LB771-HNC = format: functional, cell-based, Homo sapiens; settings: Homo sapiens, LB771-HNC;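 also: growth inhibition of LB771-HNC human cells, read out with a cell viability assay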
# Description: SANGER: Inhibition of human LB771-HNC cell growth in a cell viability assay.
# Huh-7 = format: functional, cell-based, Homo sapiens; settings: Homo sapiens, Huh-7;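 also: HuH-7 cell growth inhibition, read out with a cell viability assay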
# Description: SANGER: Inhibition of human HuH-7 cell growth in a cell viability assay.
# SK-N-FI = format: functional, cell-based, Homo sapiens; settings: Homo sapiens, SK-N-FI;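 also: cell viability assay measuring growth inhibition of human SK-N-FI cells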
# Description: SANGER: Inhibition of human SK-N-FI cell growth in a cell viability assay.
# IST-MES1 = format: functional, cell-based, Homo sapiens; settings: Homo sapiens, IST-MES1;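 also: growth inhibition of IST-MES1 cells, measured with a cell viability assay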
# Description: SANGER: Inhibition of human IST-MES1 cell growth in a cell viability assay.
# CW-2 = format: functional, cell-based, Homo sapiens; settings: Homo sapiens, CW-2;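 also: growth inhibition of CW-2 cells, read out by a cell viability assay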
# Description: SANGER: Inhibition of human CW-2 cell growth in a cell viability assay.
# HT-1376 = format: functional, cell-based, Homo sapiens; settings: Homo sapiens, HT-1376
# Description: SANGER: Inhibition of human HT-1376 cell growth in a cell viability assay.
# MDA-MB-175-VII = format: functional, cell-based, Homo sapiens; settings: Homo sapiens, MDA-MB-175-VII
# NCI-N87 = format: functional, cell-based, Homo sapiens; settings: Homo sapiens, NCI-N87;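 also: growth inhibition of human NCI-N87 cells, read out with a cell viability assay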
# Description: SANGER: Inhibition of human NCI-N87 cell growth in a cell viability assay.
# P30-OHK = format: functional, cell-based; settings: Homo sapiens;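 also: growth inhibition of the P30-OHK cell line, read out with a cell viability assay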
# Description: SANGER: Inhibition of human P30-OHK cell growth in a cell viability assay.
# MN-60 = format: functional, cell-based; settings: Homo sapiens;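 also: growth inhibition of the MN-60 cell line, determined with a cell viability assay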
# Description: SANGER: Inhibition of human MN-60 cell growth in a cell viability assay.
# U-118-MG = format: functional, cell-based, Homo sapiens; settings: Homo sapiens, U-118-MG
# Description: SANGER: Inhibition of human U-118-MG cell growth in a cell viability assay.
structure (smiles),measurement,setting,value
C=CCc1cccc(/C=N/NC(=O)CN2CCN(Cc3ccccc3)CC2)c1O [PAC-1],IC50,AU565,> 2560 nM
same,IC50,NCI-H596,> 2560 nM
same,IC50,SW1710,> 2560 nM
same,IC50,LB2518-MEL,> 2560 nM
same,IC50,K562,> 2560 nM
same,IC50,VA-ES-BJ,> 2560 nM
same,IC50,DoTc2-4510,> 2560 nM
same,IC50,EW-16,> 2560 nM
same,IC50,NB69,> 2560 nM
same,IC50,T84,1030 nM
same,IC50,COR-L88,> 2560 nM
same,IC50,COR-L105,> 2560 nM
same,IC50,K5,> 2560 nM
same,IC50,ACHN,1690 nM
same,IC50,ES3,> 2560 nM
same,IC50,NCI-H1650,> 2560 nM
same,IC50,SW1990,> 2560 nM
same,IC50,GP5d,> 2560 nM
same,IC50,G-401,1010 nM
same,IC50,OAW-28,> 2560 nM
same,IC50,M14,> 2560 nM
same,IC50,NCI-H23,> 2560 nM
same,IC50,PANC-03-27,760 nM
same,IC50,A 172,> 2560 nM
same,IC50,CP66-MEL,> 2560 nM
same,IC50,DMS-114,> 2560 nM
same,IC50,MMAC-SF,> 2560 nM
same,IC50,NCI-H1563,> 2560 nM
same,IC50,HD-MY-Z,> 2560 nM
same,IC50,NB13,> 2560 nM
same,IC50,CAL-120,> 2560 nM
same,IC50,ASPC1,> 2560 nM
same,IC50,GI-1,> 2560 nM
same,IC50,DBTRG-05MG,> 2560 nM
same,IC50,UMUC3,> 2560 nM
same,IC50,COLO-824,> 2560 nM
same,IC50,SF-268,> 2560 nM
same,IC50,LB771-HNC,> 2560 nM
same,IC50,Huh-7,> 2560 nM
same,IC50,SK-N-FI,> 2560 nM
same,IC50,IST-MES1,> 2560 nM
same,IC50,CW-2,> 2560 nM
same,IC50,HT-1376,> 2560 nM
same,IC50,MDA-MB-175-VII,> 2560 nM
same,IC50,NCI-N87,> 2560 nM
same,IC50,P30-OHK,> 2560 nM
same,IC50,MN-60,> 2560 nM
same,IC50,U-118-MG,> 2560 nM
